# Laboratory results published in US20240342166A1, “PHARMACEUTICAL COMPOSITION FOR PREVENTING OR TREATING TUMOR, AND USE THEREOF” (TIUMBIO CO., LTD., priority 2021, published 2024).
# How the values were obtained:
# B16F10 cell lines = test: Melanoma mouse model, anti-PD-1 antibody and Compound 1 (Example 1.1); format: in vivo; settings: Day 15 from the drug administration date; C57BL/6 mice; Compound 1 50 mg/kg twice a day p.o.; anti-PD-1 antibody 10 mg/kg once every three days i.p.
# Text: 40 female C57BL/6 mice, which were 6-8 weeks old, were purchased from OrientBio, and 1×10^6 B16F10 cell lines (KCLB, #80008) were subcutaneously injected into the right flank of each mouse, thereby transplanting the cancer cell lines thereto.
# The mice were classified according to the mean and deviation of the tumor volume on Day 9.
# A change in tumor volume for each group was statistically analyzed using Two-way ANOVA test.
# [1] = tested on: CT26 cell lines (Murine colon cancer cells); test: Colorectal cancer mouse model (Example 2); format: in vivo; settings: Day 26 from the drug administration date; groups without anti-CTLA-4 antibody; Compound 1 50 mg/kg twice a day p.o.; anti-PD-1 antibody 10 mg/kg once every three days i.p.; lenvatinib 10 mg/kg p.o.
# Procedure: 170 female BALB/C mice, which were 6-8 weeks old, were purchased from OrientBio, and cancer cell lines were transplanted by subcutaneously injecting 7.5×10^5 CT26 cell lines (Murine colon cancer cells) into the right flank of each mouse.
# The mice selected in Example 2.1 were assigned to the groups listed in Table 4 below, and vehicles or drugs were administered, and drug administration was initiated on Day 7 from the cell line inoculation date, and the study was terminated on Day 27 from the drug administration date.
# In this case, the mouse tumor volume was calculated by the same method as the tumor volume calculation method of Example 1.1.2.
# Tumor volume changes and weight changes for each group were statistically analyzed using Two-way ANOVA test, Bonferroni test, and one-tailed t-test.
# [2] = tested on: human peripheral blood mononuclear cells (hPBMCs); test: In vitro IFN-γ secretion in TGF-β-inhibited, anti-CD3/anti-CD28-stimulated hPBMCs (ELISA); format: cell-based; settings: treated with anti-CD3 antibodies, anti-CD28 antibodies and TGF-β; stimulated for 72 hours; IFN-γ ELISA of supernatants
# Procedure: A 6-well plate was coated with anti-CD3 monoclonal antibodies (OKT3) at 4° C. overnight. Each well of the 6-well plate was suctioned with an antibody solution, and washed using PBS. hPBMCs were plated on the coated 6-well plate. In order to increase the reactivity of hPBMCs, culturing was performed for 5 days under the conditions of 37° C., 5% carbon dioxide humidification incubator. The hPBMCs cultured for 5 days were inoculated in a 96-well plate at a concentration of 1×10^5 cells/well. The hPBMCs inoculated in the 96-well plate were treated with lenvatinib or Compound 1 and the hPBMCs were incubated for 1 hour, then TGF-β was added thereto and the hPBMCs were cultured for 1 hour. […] After 72 hours, the supernatants were recovered and conventional IFN-γ ELISA was performed. The IFN-γ content generated for each group was measured. Data analysis was performed using Prism 5 (GraphPad Software, Inc.), and statistical analysis was performed using One-way ANOVA and Tukey's multiple comparison.
# [3] = tested on: WEHI-164 cell lines (Murine sarcoma cells); test: Sarcoma mouse model (Example 3); format: in vivo; settings: Compound 1 50 mg/kg twice a day p.o.
# Procedure: (§1) 60 female BALB/C mice, 6-8 weeks old, were purchased from Vital River Laboratories Research Model and Services Company.
# Drugs were administered from Day 7 to Day 23 from the WEHI-164 cell line transplantation date.
# The difference in tumor volumes during the study period was statistically analyzed using one-tailed t-test, ANOVA and Tukey's multiple comparison test.
# [4] = tested on: 4T1 cell lines (Murine breast cancer cells); test: Breast cancer mouse model (Example 4); format: in vivo; settings: Day 23 from the cell line inoculation date; Compound 1 50 mg/kg twice a day p.o.; anti-PD-1 or anti-CTLA-4 antibody 10 mg/kg every three days i.p.
# Text: as §1
# The difference in tumor volumes was statistically analyzed using ANOVA and Tukey's multiple comparison test.
# [5] = tested on: MBT2 cell lines (Murine bladder cancer cells); test: Bladder cancer mouse model (Example 5); settings: tumor volume on Day 30 from the cell line inoculation date; responder = tumor volume less than 1/4 of 1,500 mm^3; Compound 1 alone 15 mg/kg twice a day, in combination 50 mg/kg twice a day p.o.; anti-PD-1 antibody 12.5 mg/kg twice a week i.p.
# Procedure: C3H/HeN female mice, 7 weeks old, were purchased from OrientBio. 2.5×10^5 MBT2 cell lines (Murine bladder cancer cells) were injected subcutaneously into the right flank of each mouse to transplant a cancer cell line. The MBT2 cell line transplantation date was determined as Day 0, and the tumor volume was measured on Day 6.
# A 0.9% physiological saline solution was prepared as a vehicle, and a mixed solution of an anti-PD-1 antibody (BioXCell) and PBS, and a mixed solution of Compound 1 and the vehicle were prepared as study drugs.
# The mice selected in Example 5.1 were assigned to a control group, a group in which an anti-PD-1 antibody was administered, a group in which Compound 1 was administered, or a group in which Compound 1 was administered in combination with an anti-PD-1 antibody, respectively. Drugs were administered from Day 6 to Day 28 from the MBT2 cell line transplantation date.
# The mouse tumor volume and weight were measured three times a week during the study period after the drug administration. The tumor volume was measured by the same method as the method for measuring the tumor volume in Example 1.1.2.
SMILES,tumor volume lower than the tumor volume measured in the control group (B16F10 cell lines),drop in tumor volume compared to the tumor volume of the control group (vehicle) [1],secretion of IFNγ in human PBMCs [2],"complete remission rate of the tumor ([3]; anti-CTLA-4 antibody 10 mg/kg once a week i.p., compared to the vehicle control group)","tumor volume smaller than the tumor volume of the control group ([3]; Day 16 from the drug administration initiation date, anti-PD-1 antibody 10 mg/kg once a week i.p.)",tumor volume reduced compared to the tumor volume of the control group [4],Response individual ratio (percent) [5],Response individual ratio (responders/mice) [5]
"Cc1cccc(-c2nc3n(c2-c2ccc4ncnn4c2)CCN3)n1.O=P(O)(O)O [Compound 1, 6-(6-(6-methylpyridine-2-yl)-2,3-dihydro-1H-imidazo[1,2-a]imidazol-5-yl)-[1,2,4]triazole[1,5-a]pyridine phosphate]",44%,59%,increased secretion of IFNγ,30%,71%,16%,9%,1/11
"COc1cc2nccc(Oc3ccc(NC(=O)NC4CC4)c(Cl)c3)c2cc1C(N)=O [lenvatinib, reference compound]",,30%,increased secretion of IFNγ,,,,,
